In ChEMBL document CHEMBL1201862, “PubChem BioAssay data set” (2004):
Where a name gives a salt, the structure may show the parent alone. Active and inactive are the calls of the source.

Legend:
[1] = HEp-2 cell cytotoxicity, dose response, cytotoxicity control for RSV inhibitor project, HTS (AID 2410); type: functional; details: human respiratory syncytial virus
[2] = target: NADPH oxidase 1 (Homo sapiens, UniProt Q9Y5S8); test: Late-stage luminescence-based cell-based dose response assay to identify inhibitors of NADPH oxidase 1 (NOX1): Synthesized analogs.; type: functional
Sequence of NADPH oxidase 1 (Q9Y5S8 whole entry): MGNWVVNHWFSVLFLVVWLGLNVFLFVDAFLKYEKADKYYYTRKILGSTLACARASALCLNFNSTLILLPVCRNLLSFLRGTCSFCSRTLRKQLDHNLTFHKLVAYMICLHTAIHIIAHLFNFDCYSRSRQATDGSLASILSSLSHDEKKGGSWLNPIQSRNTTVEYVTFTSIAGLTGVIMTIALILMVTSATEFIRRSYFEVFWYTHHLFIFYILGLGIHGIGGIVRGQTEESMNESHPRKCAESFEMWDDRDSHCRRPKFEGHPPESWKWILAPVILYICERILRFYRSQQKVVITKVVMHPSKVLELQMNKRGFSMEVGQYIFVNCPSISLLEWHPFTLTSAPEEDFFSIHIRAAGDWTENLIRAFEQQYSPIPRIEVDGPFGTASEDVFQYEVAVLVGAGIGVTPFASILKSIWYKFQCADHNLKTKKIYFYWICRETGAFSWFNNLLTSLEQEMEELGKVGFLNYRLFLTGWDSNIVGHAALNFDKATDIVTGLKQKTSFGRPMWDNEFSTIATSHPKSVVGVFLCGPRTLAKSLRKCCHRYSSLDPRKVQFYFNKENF

[3] = system: INS1; test: beta cell apoptosis inhibitors, cytokine rescue, dose response, luminescence, retest (AID 449756); type: functional, cell-based; details: Rattus norvegicus;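 further: cell death triggered by IL-1 beta plus TNF-alpha plus IFN-gamma mixture; protective hits raise ATP signal compared with cytokine alone wells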
[4] = target: T1, Protein skinhead-1 (Caenorhabditis elegans, UniProt P34707); type: functional
T1 sequence (P34707 whole entry): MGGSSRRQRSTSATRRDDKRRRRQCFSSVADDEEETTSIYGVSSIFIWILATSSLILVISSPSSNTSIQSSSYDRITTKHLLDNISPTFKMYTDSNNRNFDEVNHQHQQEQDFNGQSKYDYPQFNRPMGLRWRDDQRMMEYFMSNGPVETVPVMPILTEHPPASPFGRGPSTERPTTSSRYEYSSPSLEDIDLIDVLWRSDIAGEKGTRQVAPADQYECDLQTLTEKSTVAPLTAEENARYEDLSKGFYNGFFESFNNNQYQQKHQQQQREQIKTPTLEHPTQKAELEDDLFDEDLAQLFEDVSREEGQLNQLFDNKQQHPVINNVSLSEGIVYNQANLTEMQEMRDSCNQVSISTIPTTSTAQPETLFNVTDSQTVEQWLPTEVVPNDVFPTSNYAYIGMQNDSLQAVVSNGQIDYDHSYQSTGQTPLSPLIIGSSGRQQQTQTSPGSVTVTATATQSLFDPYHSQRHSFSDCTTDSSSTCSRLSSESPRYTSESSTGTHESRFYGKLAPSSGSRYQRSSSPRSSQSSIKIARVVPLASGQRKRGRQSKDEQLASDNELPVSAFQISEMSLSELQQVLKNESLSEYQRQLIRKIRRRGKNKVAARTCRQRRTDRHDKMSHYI

[5] = Vero cell cytotoxicity, dose response, cytotoxicity control for Vif-APOBEC3G degradation inhibitor project, Vero cells (AID 1117358); type: functional; details: Human immunodeficiency virus 1, Vero
[6] = target: T2, Sentrin-specific protease 8 (Homo sapiens, UniProt Q96LD8); type: functional
T2 sequence (Q96LD8 whole entry): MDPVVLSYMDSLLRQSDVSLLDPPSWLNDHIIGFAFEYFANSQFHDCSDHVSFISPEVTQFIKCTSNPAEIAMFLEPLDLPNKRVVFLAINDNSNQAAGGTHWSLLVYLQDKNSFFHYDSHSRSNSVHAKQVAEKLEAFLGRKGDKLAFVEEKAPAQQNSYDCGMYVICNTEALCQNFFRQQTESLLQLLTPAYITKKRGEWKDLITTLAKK

[7] = target: T2, Sentrin-specific protease 8; type: functional; remark: listed apart in the source
[8] = target: T3, Histone-lysine N-methyltransferase NSD2 (Homo sapiens, UniProt O96028); type: biochemical
T3 sequence (O96028 whole entry): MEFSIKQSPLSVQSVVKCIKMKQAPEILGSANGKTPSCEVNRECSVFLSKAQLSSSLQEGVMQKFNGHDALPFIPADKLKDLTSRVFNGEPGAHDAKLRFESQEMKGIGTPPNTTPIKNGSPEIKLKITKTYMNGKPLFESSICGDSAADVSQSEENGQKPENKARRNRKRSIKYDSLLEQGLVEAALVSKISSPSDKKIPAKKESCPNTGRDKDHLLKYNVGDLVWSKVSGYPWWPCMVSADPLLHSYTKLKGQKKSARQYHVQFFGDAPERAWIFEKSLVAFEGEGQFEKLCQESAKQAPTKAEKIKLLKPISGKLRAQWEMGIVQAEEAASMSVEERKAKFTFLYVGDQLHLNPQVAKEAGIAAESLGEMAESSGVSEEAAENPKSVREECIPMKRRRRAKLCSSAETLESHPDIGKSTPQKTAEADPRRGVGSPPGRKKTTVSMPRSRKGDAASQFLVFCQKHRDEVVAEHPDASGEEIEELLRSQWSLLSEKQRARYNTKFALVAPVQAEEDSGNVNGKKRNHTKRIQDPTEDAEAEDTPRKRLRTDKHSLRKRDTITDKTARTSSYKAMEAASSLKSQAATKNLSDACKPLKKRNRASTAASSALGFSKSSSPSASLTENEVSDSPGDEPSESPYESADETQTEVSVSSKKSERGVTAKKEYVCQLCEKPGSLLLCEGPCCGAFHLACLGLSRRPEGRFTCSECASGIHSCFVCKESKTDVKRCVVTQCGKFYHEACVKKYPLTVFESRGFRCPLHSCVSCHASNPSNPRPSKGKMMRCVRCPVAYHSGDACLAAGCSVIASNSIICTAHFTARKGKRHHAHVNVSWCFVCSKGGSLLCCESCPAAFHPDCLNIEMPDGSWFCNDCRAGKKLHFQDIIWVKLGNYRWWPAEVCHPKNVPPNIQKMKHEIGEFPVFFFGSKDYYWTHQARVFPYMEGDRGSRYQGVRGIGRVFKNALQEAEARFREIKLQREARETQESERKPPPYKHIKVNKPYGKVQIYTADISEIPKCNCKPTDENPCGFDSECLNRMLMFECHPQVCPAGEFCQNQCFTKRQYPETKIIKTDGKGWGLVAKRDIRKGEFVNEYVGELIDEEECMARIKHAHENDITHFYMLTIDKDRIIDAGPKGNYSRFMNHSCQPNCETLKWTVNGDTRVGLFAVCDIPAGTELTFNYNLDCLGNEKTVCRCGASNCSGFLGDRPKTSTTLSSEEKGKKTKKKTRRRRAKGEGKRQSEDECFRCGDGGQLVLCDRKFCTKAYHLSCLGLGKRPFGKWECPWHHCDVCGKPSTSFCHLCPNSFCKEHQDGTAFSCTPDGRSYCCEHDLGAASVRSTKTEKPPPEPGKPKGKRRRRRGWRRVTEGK

[9] = target: T4, Tyrosyl-DNA phosphodiesterase 2 (Homo sapiens, UniProt O95551); test: human TDP2 enzyme inhibitors, dose response, biochemical, epi absorbance, IC50 (AID 743297)
T4 sequence (O95551 whole entry): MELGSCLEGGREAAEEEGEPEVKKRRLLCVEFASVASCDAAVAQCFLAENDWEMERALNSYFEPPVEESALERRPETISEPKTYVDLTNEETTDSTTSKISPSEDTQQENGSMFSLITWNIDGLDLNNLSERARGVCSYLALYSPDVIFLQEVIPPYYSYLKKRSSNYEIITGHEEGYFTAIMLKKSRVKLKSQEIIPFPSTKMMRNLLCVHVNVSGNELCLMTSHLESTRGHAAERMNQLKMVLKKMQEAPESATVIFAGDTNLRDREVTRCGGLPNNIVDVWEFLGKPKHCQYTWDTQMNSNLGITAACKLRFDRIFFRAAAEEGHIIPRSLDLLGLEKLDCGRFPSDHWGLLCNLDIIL

[10] = target: Glutathione-S-transferase (Schistosoma japonicum, UniProt Q26513); test: biotin-GST/anti-GST TR-FRET signal inhibitors, dose response, artefact control for Vif-APOBEC3G degradation inhibitor project, biochemical (AID 1117362); type: functional
Sequence of Glutathione-S-transferase (Q26513 whole entry): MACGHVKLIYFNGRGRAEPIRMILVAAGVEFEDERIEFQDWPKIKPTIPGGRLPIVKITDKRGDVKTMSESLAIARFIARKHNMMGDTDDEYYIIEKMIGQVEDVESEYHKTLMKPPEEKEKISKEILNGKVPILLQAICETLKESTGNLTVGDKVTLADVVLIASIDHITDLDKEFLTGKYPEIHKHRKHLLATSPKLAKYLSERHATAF

[11] = target: Sphingosine 1-phosphate receptor 2 (Homo sapiens, UniProt O95136); test: Dose Response Cell Based Assay for Agonists of the S1P2 Receptor. [Related pubchem assays: 729, 736, 843 ]; type: functional
Sequence of Sphingosine 1-phosphate receptor 2 (O95136 whole entry): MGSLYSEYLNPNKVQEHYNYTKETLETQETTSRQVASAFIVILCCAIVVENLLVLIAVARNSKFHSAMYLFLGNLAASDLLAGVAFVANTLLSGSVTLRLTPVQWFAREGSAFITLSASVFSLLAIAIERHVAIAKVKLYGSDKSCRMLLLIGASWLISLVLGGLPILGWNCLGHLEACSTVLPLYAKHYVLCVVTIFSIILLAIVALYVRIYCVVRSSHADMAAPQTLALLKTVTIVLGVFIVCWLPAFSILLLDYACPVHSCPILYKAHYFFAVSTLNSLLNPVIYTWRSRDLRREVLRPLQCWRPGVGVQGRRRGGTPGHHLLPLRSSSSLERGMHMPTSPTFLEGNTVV

[12] = target: T5, Bcl-2-related protein A1 (Mus musculus, UniProt Q07440); type: functional;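 further: confirmatory dose–response counterscreen on Bfl-1, used to check hits from a UBC13 polyubiquitin inhibitor campaign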
T5 sequence (Q07440 whole entry): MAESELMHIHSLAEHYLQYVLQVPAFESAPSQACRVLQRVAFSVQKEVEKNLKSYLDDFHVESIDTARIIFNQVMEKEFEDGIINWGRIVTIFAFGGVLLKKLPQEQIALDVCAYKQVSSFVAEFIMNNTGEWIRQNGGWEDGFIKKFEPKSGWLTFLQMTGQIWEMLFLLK

[13] = target: T6, Ubiquitin-conjugating enzyme E2 N (Homo sapiens, UniProt P61088); type: functional
T6 sequence (P61088 whole entry): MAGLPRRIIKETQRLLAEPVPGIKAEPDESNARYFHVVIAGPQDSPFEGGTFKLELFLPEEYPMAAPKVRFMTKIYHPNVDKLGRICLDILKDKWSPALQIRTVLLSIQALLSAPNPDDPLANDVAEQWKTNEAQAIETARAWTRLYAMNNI

[14] = target: T6, Ubiquitin-conjugating enzyme E2 N; type: functional; remark: listed apart in the source
[15] = HeLa 2N DNA content increase, dose response, cell-based, IC50 (AID 1117349); type: functional
[16] = Concentration-dependent survival of SW480 colon cancer line, luminescence detection with CellTiter-Glo, half-maximal inhibitory concentration (AID 1117338); type: functional
[17] = RKO cell viability reduction, dose response, CellTiter-Glo luminescence (AID 1117322); type: functional
[18] = cytotoxicity toward HCT116 cells – cell-based, CellTiter-Glo luminescence, IC50, dose response (AID 1117332); type: functional; details: HCT-116
[19] = SNU-C1 cell viability reduction, dose response, CellTiter-Glo luminescence (AID 1117323); type: functional, cell-based
[20] = cytotoxicity toward Colo320 cells – cell-based, CellTiter-Glo luminescence, IC50, dose response (AID 1117334); type: functional; details: COLO 320
[21] = HeLa 4N DNA content increase, dose response, cell-based, IC50 (AID 1117351); type: functional
[22] = cytotoxicity toward HT-29 cells – cell-based, CellTiter-Glo luminescence, IC50, dose response (AID 1117330); type: functional
[23] = CellTiter-Glo luminescent dose response of DLD-1 viability loss (AID 1117352); type: functional
[24] = HCT116 cell viability decrease, GSK3B pretreatment – CellTiter-Glo, IC50, dose response (AID 1117339); type: functional; details: HCT-116
[25] = A549 cell cytotoxicity, dose response, CellTiter-Glo luminescence, dry powder, set 17 (AID 1117284); type: functional, cell-based
[26] = cell lysis of Cryptococcus neoformans, alamar blue – dry powder, set 3, mechanism study for C. neoformans antifungal project, dose response (AID 743298); type: functional, organism-based
[27] = Dose-response inhibition of insulin secretion in a rat insulinoma line at 5 mM glucose (AID 1117331); type: functional, cell-based; details: INS-1E

## Cc1ccc2c(c1)Sc1c(ccc3ccccc13)N2
[1]
  CC50: 47.8 µM (active)
[2]
  IC50: 1.47 µM (active)
[3]
  AC50: > 260 µM (inactive)

## CSc1ccc(C2Nc3ccccc3-c3cc(C)nn32)cc1 (configuration not stated)
[4]
  IC50: > 100 µM (inactive)
[5]
  CC50: > 40 µM (active)

## C[n+]1cccc2cccc([O-])c21
[6]
  IC50: 1.82 µM (active)
[7]
  IC50: 1.01 µM (active)
[8]
  AC50: 15.1 µM (active)
[9]
  IC50: 60 µM (inactive)
[10]
  IC50: 42.6 µM (active)

## CCC(=O)c1cc2c(C)cc(=O)oc2c(C)c1O
[11]
  EC50: > 50 µM (not active)
[12]
  IC50: > 20 µM (inactive)
[13]
  IC50: 10.5 µM (active)
[14]
  IC50: > 20 µM (inactive)

## NC(N)=NN=C(/C=C/c1ccc([N+](=O)[O-])o1)/C=C/c1ccc([N+](=O)[O-])o1
[15]
  IC50: > 10 µM (inactive)
[16]
  IC50: 0.0076 µM (active)
[17]
  IC50: 0.0128 µM (active)
[18]
  IC50: 0.136 µM (active)
[19]
  IC50: 1.35 µM (active)
[20]
  IC50: 0.003 µM (active)
[21]
  IC50: > 10 µM (inactive)
[22]
  IC50: 0.003 µM (active)
[23]
  IC50: > 20 µM (inactive)
[24]
  IC50: 0.0237 µM (active)

## COc1ccc(-c2ccc(CN(C)C[C@@H]3Oc4cc(C#C[C@@H](C)O)ccc4S(=O)(=O)N([C@@H](C)CO)C[C@@H]3C)cc2)cc1
[25]
  AC50: 29.8 µM (active)

## Fc1ccc(OCCn2c(=S)[nH]c3ccccc32)cc1
[26]
  AC50: 55.4 µM (active)

## CN(C)CCN1C(=O)c2ccccc2N(C)c2ccccc21 [DIBENZEPIN HYDROCHLORIDE]
[27]
  IC50: > 33.3 µM (inactive)
